“And” between values parts separate entries of the source, which are not always exact repeats. Equal entries are not always repeated.
Columns and labels:
Experiment in all cases: In-cell proteome-wide competitive ABPP, HEK293: other DUBs and proteins
[1] = target: DUBs and other proteins in HEK293 cells (Homo sapiens, UniProt Q14694); conditions: replicates A-C; for Log2 reporter intensity values: USP10: competition with ABP 2, DMSO substract (FC); for Log2 reporter intensity values: USP10, DMSO subtracted
[2] = target: T1, DUBs and other proteins in HEK293 cells (Homo sapiens, UniProt Q96RU2); conditions: replicates A-C; for Log2 reporter intensity values: USP28: competition with ABP 2, DMSO substract (FC); for Log2 reporter intensity values: USP28, DMSO subtracted
T1 sequence (Q96RU2 1-1077): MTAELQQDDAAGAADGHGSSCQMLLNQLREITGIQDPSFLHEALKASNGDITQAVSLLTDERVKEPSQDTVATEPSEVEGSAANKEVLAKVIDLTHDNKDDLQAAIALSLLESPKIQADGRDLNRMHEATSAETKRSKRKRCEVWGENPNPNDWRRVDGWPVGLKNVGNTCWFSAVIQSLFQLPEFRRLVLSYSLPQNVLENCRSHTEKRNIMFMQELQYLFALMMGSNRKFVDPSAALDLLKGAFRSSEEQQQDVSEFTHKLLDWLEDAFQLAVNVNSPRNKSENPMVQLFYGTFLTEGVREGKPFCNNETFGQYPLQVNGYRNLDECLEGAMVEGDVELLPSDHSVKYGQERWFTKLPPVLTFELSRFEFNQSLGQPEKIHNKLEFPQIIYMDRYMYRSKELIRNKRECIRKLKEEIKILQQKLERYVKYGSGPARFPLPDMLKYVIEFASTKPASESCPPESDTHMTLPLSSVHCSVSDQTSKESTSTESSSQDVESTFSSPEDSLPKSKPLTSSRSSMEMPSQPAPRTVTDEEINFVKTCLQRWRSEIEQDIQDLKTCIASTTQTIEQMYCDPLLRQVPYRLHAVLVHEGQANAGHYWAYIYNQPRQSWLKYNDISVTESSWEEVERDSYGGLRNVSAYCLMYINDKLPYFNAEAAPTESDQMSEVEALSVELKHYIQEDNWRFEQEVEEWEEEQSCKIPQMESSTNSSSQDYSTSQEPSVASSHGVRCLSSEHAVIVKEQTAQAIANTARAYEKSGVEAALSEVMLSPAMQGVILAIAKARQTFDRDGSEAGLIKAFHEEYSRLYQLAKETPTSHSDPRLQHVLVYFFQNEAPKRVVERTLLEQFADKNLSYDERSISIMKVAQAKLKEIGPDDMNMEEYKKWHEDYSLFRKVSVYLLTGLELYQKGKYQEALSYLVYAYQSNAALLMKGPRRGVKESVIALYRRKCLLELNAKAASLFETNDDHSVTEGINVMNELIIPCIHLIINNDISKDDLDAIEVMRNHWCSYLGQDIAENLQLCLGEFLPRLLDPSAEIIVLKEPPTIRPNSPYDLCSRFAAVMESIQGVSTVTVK

[3] = target: DUBs and other proteins in HEK293 cells (Homo sapiens, UniProt Q96FW1); conditions: replicates A-C; for Log2 reporter intensity values: OTUB1: competition with ABP 2, DMSO substract (FC); for Log2 reporter intensity values: OTUB1, DMSO subtracted
[4] = target: DUBs and other proteins in HEK293 cells (Homo sapiens, UniProt Q7L5N1); conditions: for Log2 reporter intensity values, COPS6: TMT replicates; for Log2 reporter intensity values: COPS6: competition with ABP 2, DMSO substract (FC); for Log2 reporter intensity values: COPS6 / Log2 reporter intensity values: replicates A-C; for Log2 t-test Difference / Log2 reporter intensity values: COPS6
[5] = target: DUBs and other proteins in HEK293 cells (Homo sapiens, UniProt O00303); conditions: for Log2 reporter intensity values, EIF3F: TMT replicates; for Log2 reporter intensity values: EIF3F: competition with ABP 2, DMSO substract (FC); for Log2 reporter intensity values: EIF3F / Log2 reporter intensity values: replicates A-C; for Log2 t-test Difference / Log2 reporter intensity values: EIF3F
[6] = 1 μM 1 (60 min) + 20 nM ABP 2 (10 min), All values
[7] = 1 μM 1 (60 min) + 20 nM ABP 2 (10 min), DMSO subtracted
[8] = 4 μM 1 (60 min) + 20 nM ABP 2 (10 min), All values
[9] = 4 μM 1 (60 min) + 20 nM ABP 2 (10 min), DMSO subtracted

Chain of DUBs and other proteins in HEK293 cells (Homo sapiens, UniProt Q14694) (Q14694 whole entry): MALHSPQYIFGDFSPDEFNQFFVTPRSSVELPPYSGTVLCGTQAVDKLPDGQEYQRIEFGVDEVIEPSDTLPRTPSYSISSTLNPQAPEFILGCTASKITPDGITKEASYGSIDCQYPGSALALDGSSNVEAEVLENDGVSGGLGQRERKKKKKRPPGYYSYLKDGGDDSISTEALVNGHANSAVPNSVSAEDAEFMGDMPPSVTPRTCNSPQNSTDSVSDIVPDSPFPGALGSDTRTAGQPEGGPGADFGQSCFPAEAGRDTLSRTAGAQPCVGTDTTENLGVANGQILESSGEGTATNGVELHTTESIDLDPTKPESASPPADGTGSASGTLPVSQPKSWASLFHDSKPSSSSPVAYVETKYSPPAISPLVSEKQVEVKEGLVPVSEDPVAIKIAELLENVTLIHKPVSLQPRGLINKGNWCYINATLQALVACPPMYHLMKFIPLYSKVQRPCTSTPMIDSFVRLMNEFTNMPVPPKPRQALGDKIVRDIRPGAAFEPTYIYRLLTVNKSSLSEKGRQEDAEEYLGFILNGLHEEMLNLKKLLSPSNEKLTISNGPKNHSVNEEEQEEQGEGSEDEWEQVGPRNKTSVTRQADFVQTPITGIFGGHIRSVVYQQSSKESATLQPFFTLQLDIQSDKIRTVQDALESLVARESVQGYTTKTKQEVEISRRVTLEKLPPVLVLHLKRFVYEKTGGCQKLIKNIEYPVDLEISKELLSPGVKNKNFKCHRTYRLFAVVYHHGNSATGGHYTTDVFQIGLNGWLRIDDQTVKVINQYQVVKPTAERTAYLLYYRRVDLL
Chain of DUBs and other proteins in HEK293 cells (Homo sapiens, UniProt O00303) (O00303 whole entry): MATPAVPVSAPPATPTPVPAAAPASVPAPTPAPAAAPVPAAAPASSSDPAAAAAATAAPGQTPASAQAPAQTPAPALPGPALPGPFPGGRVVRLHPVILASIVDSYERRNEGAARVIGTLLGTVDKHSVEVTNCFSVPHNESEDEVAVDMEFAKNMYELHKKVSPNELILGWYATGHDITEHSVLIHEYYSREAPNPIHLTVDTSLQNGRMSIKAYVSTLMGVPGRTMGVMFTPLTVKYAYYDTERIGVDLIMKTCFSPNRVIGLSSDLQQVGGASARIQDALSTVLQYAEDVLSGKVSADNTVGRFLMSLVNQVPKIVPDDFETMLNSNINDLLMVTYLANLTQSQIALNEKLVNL
Chain of DUBs and other proteins in HEK293 cells (Homo sapiens, UniProt Q7L5N1) (Q7L5N1 whole entry): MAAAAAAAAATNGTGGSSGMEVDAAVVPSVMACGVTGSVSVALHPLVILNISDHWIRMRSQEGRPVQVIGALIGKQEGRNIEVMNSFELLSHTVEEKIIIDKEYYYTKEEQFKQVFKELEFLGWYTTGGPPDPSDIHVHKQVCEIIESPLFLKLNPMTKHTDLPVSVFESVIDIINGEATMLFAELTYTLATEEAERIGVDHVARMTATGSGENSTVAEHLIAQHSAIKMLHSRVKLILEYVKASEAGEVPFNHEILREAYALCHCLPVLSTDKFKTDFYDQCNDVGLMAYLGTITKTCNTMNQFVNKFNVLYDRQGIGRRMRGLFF
Chain of DUBs and other proteins in HEK293 cells (Homo sapiens, UniProt Q96FW1) (Q96FW1 whole entry): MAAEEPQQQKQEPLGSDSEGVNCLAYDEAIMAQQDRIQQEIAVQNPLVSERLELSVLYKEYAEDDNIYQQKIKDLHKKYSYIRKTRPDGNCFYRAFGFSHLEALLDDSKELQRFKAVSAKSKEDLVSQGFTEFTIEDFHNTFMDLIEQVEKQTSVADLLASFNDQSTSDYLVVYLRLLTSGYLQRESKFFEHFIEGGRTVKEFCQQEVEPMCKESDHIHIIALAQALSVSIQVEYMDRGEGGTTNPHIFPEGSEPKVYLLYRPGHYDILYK

## N#CN1CCC[C@H]1C(=O)N1CCc2c(-c3c[nH]c4ncccc34)cccc21 [Compound 1]
[1]; 1 at 1 μM
  Log2 reporter intensity values: USP10: 0.8161 and 0.9562 and 0.9573
  Log2 reporter intensity values: -0.2931 and -0.06461 and -0.06297
[1]; 1 at 4 μM
  Log2 reporter intensity values: USP10: 0.9286 and 0.9489 and 0.874
  Log2 reporter intensity values: -0.1068 and -0.07574 and -0.1942
[1]; 1_1 μM
  Log2 reporter intensity values: -0.1848 and -0.04476 and -0.04368
[1]; 1_4 μM
  Log2 reporter intensity values: -0.07234 and -0.05211 and -0.1269
[2]; 1 at 1 μM
  Log2 reporter intensity values: USP28: 0.9959 and 0.8739 and 1.601
  Log2 reporter intensity values: -0.005982 and -0.1944 and 0.6787
[2]; 1 at 4 μM
  Log2 reporter intensity values: USP28: 1.351 and 1.583 and 1.105
  Log2 reporter intensity values: 0.4345 and 0.6627 and 0.1441
[2]; 1_1 μM
  Log2 reporter intensity values: -0.04385 and -0.1658 and 0.561
[2]; 1_4 μM
  Log2 reporter intensity values: 0.3117 and 0.5434 and 0.06533
[3]; 1 at 1 μM
  Log2 reporter intensity values: OTUB1: 1.079 and 1.058 and 1.055
  Log2 reporter intensity values: 0.1099 and 0.08068 and 0.07687
[3]; 1 at 4 μM
  Log2 reporter intensity values: OTUB1: 0.9564 and 0.9957 and 1.033
  Log2 reporter intensity values: -0.06433 and -0.00624 and 0.04749
[3]; 1_1 μM
  Log2 reporter intensity values: 0.07905 and 0.05739 and 0.05461
[3]; 1_4 μM
  Log2 reporter intensity values: -0.04373 and -0.004436 and 0.03334
[4]; [6]
  Log2 reporter intensity values, COPS6: -0.0741 and -0.01578 and 0.003018
[4]; [7]
  Log2 reporter intensity values, COPS6: -0.08651 and -0.02819 and -0.009395
[4]; [8]
  Log2 reporter intensity values, COPS6: 0.02899 and -0.02559 and 0.0005347
[4]; [9]
  Log2 reporter intensity values, COPS6: 0.01657 and -0.038 and -0.01188
[4]; 1 at 1 μM
  Log2 reporter intensity values: COPS6: 0.9418 and 0.9806 and 0.9935
[4]; 1 at 4 μM
  Log2 reporter intensity values: COPS6: 1.012 and 0.974 and 0.9918
[4]; 1 - 1 μM
  Log2 t-test Difference: -0.08501
[4]; 1 - 4 μM
  Log2 t-test Difference: -0.05474
[4]; 1_1 μM, DMSO subtracted
  Log2 reporter intensity values: -0.05832 and -0.01946 and -0.006603
[4]; 1_4 μM, DMSO subtracted
  Log2 reporter intensity values: 0.01144 and -0.02611 and -0.008312
[4]; 1 at 1 μM, DMSO subtracted
  Log2 reporter intensity values: -0.08651 and -0.02819 and -0.009395
[4]; 1 at 4 μM, DMSO subtracted
  Log2 reporter intensity values: 0.01657 and -0.038 and -0.01188
[5]; [6]
  Log2 reporter intensity values, EIF3F: -0.05755 and -0.0632 and -0.06224
[5]; [7]
  Log2 reporter intensity values, EIF3F: -0.048 and -0.05365 and -0.05269
[5]; [8]
  Log2 reporter intensity values, EIF3F: 0.06402 and -0.06596 and 0.05418
[5]; [9]
  Log2 reporter intensity values, EIF3F: 0.07357 and -0.05641 and 0.06373
[5]; 1 at 1 μM
  Log2 reporter intensity values: EIF3F: 0.9673 and 0.9635 and 0.9641
[5]; 1 at 4 μM
  Log2 reporter intensity values: EIF3F: 1.052 and 0.9617 and 1.045
[5]; 1 - 1 μM
  Log2 t-test Difference: -0.1421
[5]; 1 - 4 μM
  Log2 t-test Difference: -0.06374
[5]; 1_1 μM, DMSO subtracted
  Log2 reporter intensity values: -0.03315 and -0.03692 and -0.03628
[5]; 1_4 μM, DMSO subtracted
  Log2 reporter intensity values: 0.0519 and -0.03877 and 0.04475
[5]; 1 at 1 μM, DMSO subtracted
  Log2 reporter intensity values: -0.048 and -0.05365 and -0.05269
[5]; 1 at 4 μM, DMSO subtracted
  Log2 reporter intensity values: 0.07357 and -0.05641 and 0.06373

Reference: paper PMC7366380, “Discovery of a Potent and Selective Covalent Inhibitor and Activity-Based Probe for the Deubiquitylating Enzyme UCHL1, with Antifibrotic Activity” (Journal of the American Chemical Society, 2020)
